The results in this text go back to patent US12485121B2, “Antiviral agents for the treatment and prevention of HIV infection” (Pharmasyntez, Joint Stock Company, priority 2020, dated 2025).

This assay deals with HIV-1 subtype A strain 12RU 69831. The assay can be described thus: Inhibition of HIV-1 reproduction / protection of infected MT-4 cells (living cell concentration, p24 production). It is filed as cell-based. The conditions noted are these: Human immunodeficiency virus 1, MT4, MT-4 cells infected with HIV-1 at a constant virus dose of 300 CCID50; read-out: Activity against HIV-1 12RU 69831 strain (subtype A). On the procedure: Evaluation of HIV reproduction inhibition/protection of human cells by anti-HIV products of the present invention was conducted by measuring change in living cells concentration in experimental wells with MT-4 cells infected with HIV-1, as well as by the production of viral protein p24 with adding different concentrations of compounds according to the present invention. Antiviral activity of products against HIV-1 subtype A strain 12RU 69831 was determined, when the cell culture was infected with a constant dose of virus, corresponding to 300 CCID50.
Turning to `Cc1cc(C#N)cc(C)c1Oc1nc(Nc2ccc(C#N)cc2)nc2c1CCN(C1CCOCC1)CC2` [BB0274072, 4-((2-((4-Cyanophenyl)amino)-7-(tetrahydro-2H-pyran-4-yl)-6,7,8,9-tetrahydro-5H-pyrimido[4,5-d]azepine-4-yl)oxy)-3,5-dimethylbenzonitrile], the IC50 stood at 4.07 µM. Consider `Cc1ccc(CN2CCc3nc(Nc4ccc(C#N)cc4)nc(Oc4c(C)cc(C#N)cc4C)c3CC2)o1` [BB0274073], for which the IC50 amounted to 57.4 µM. Take `Cc1cc(C#N)cc(C)c1Oc1nc(Nc2ccc(C#N)cc2)nc2c1CCN(Cc1cccn1C)CC2` [BB0274074]: the IC50 was found to be 83.3 µM. With `Cc1cc(C#N)cc(C)c1Oc1nc(Nc2ccc(C#N)cc2)nc2c1CCN(Cc1ccc(O)cc1)CC2` [BB0274075, 4-((2-((4-Cyanophenyl)amino)-7-(4-hydroxybenzyl)-6,7,8,9-tetrahydro-5H-pyrimido[4,5-d]azepine-4-yl)oxy)-3,5-dimethylbenzonitrile] the figure was 5.8 µM; with `COCC(C)N1CCc2nc(Nc3ccc(C#N)cc3)nc(Oc3c(C)cc(C#N)cc3C)c2CC1` (stereo not drawn) [BB0274080], 0.414 µM; with `Cc1cc(C#N)cc(C)c1Oc1nc(Nc2ccc(C#N)cc2)nc2c1CCN(CC#N)CC2` [BB0274095, 4-((7-(cyanomethyl)-2-((4-cyanophenyl)amino)-6,7,8,9-tetrahydro-5H-pyrimido[4,5-d]azepine-4-yl)oxy)-3,5-dimethylbenzonitrile], 11.3 µM. With `Cc1cc(C#N)cc(C)c1Oc1nc(Nc2ccc(C#N)cc2)nc2c1CN(C(=O)C1CCCN1C(=O)OC(C)(C)C)CC2` (stereo not drawn) [BB0274097, Tert-butyl 2-(4-(4-cyano-2,6-dimethylphenoxy)-2-((4-cyanophenyl)amino)-5,6,7,8-tetrahydropyrido[4,3-d]pyrimidine-6-carbonyl)pyrrolidine-1-carboxylate] the figure was 664 µM; with `Cc1cc(C#N)cc(C)c1Oc1nc(Nc2ccc(C#N)cc2)nc2c1CN(C(=O)C1CCCN1)CC2` (stereo not drawn) [BB0274098, 4-((2-((4-Cyanophenyl)amino)-6-(pyrrolidine-2-carbonyl)-5,6,7,8-tetrahydropyrido[4,3-d]pyrimidine-4-yl)oxy)-3,5-dimethylbenzonitrile], 0.046 µM. With `Cc1cc(C#N)cc(C)c1Oc1nc(Nc2ccc(C#N)cc2)nc2c1CN(C(=O)C1CNC1)CC2` [BB0274099, 4-((6-(Azetidine-3-carbonyl)-2-((4-cyanophenyl)amino)-5,6,7,8-tetrahydropyrido[4,3-d]pyrimidine-4-yl)oxy)-3,5-dimethylbenzonitrile] the figure was 0.152 µM. On to `Cc1cc(C#N)cc(C)c1Oc1nc(Nc2ccc(C#N)cc2)nc2c1CN(C(=O)c1cnccn1)CC2` [BB0274100, 4-((2-((4-Cyanophenyl)amino)-6-(pyrazine-2-carbonyl)-5,6,7,8-tetrahydropyrido[4,3-d]pyrimidine-4-yl)oxy)-3,5-dimethylbenzonitrile], for which the IC50 was determined as 33.8 µM. Regarding `Cc1cc(C#N)cc(C)c1Oc1nc(Nc2ccc(C#N)cc2)nc2c1CN(C(=O)[C@H](C)NC(=O)OC(C)(C)C)CC2` [BB0274101, (S)-Tert-butyl (1-(4-(4-cyano-2,6-dimethylphenoxy)-2-((4-cyanophenyl)amino)-7,8-dihydropyrido[4,3-d]pyrimidine-6(5H)-yl)-1-oxopropane-2-yl)carbamate], the IC50 is 8.8 µM. With `Cc1cc(C#N)cc(C)c1Oc1nc(Nc2ccc(C#N)cc2)nc2c1CN(C(=O)[C@H](C)N)CC2` [BB0274102, (S)-4-((6-(2-Aminopropanoyl)-2-((4-cyanophenyl)amino)-5,6,7,8-tetrahydropyrido[4,3-d]pyrimidine-4-yl)oxy)-3,5-dimethylbenzonitrile] the figure was 0.00341 µM; with `Cc1cc(C#N)cc(C)c1Oc1nc(Nc2ccc(C#N)cc2)nc2c1CN(C(=O)[C@H](Cc1ccccc1)NC(=O)OC(C)(C)C)CC2` [BB0274103, (S)-Tert-butyl (1-(4-(4-cyano-2,6-dimethylphenoxy)-2-((4-cyanophenyl)amino)-7,8-dihydropyrido[4,3-d]pyrimidine-6(5H)-yl)-1-oxo-3-phenylpropane-2-yl)carbamate], 228 µM; with `Cc1cc(C#N)cc(C)c1Oc1nc(Nc2ccc(C#N)cc2)nc2c1CN(C(=O)[C@@H](N)Cc1ccccc1)CC2` [BB0274111, (S)-4-((6-(2-Amino-3-phenylpropanoyl)-2-((4-cyanophenyl)amino)-5,6,7,8-tetrahydropyrido[4,3-d]pyrimidine-4-yl)oxy)-3,5-dimethylbenzonitrile], 533 µM. With `Cc1cc(C#N)cc(C)c1Oc1nc(Nc2ccc(C#N)cc2)nc2c1CCN(CCN1CCOCC1)CC2` [BB0274118, 4-((2-((4-Cyanophenyl)amino)-7-(2-morpholineethyl)-6,7,8,9-tetrahydro-5H-pyrimido[4,5-d]azepine-4-yl)oxy)-3,5-dimethylbenzonitrile] the figure was 0.324 µM; with `Cc1cc(C#N)cc(C)c1Oc1nc(Nc2ccc(C#N)cc2)nc2c1CN(C(=O)[C@@H](CO)NC(=O)OC(C)(C)C)CC2` [BB0274119, (R)-Tert-butyl (1-(4-(4-cyano-2,6-dimethylphenoxy)-2-((4-cyanophenyl)amino)-7,8-dihydropyrido[4,3-d]pyrimidine-6(5H)-yl)-3-hydroxy-1-oxopropane-2-yl)carbamate], 103 µM; with `CSCCC(NC(=O)OC(C)(C)C)C(=O)N1CCc2nc(Nc3ccc(C#N)cc3)nc(Oc3c(C)cc(C#N)cc3C)c2C1` (stereo not drawn) [BB0274120, Tert-butyl (1-(4-(4-cyano-2,6-dimethylphenoxy)-2-((4-cyanophenyl)amino)-7,8-dihydropyrido[4,3-d]pyrimidine-6(5H)-yl)-4-(methylthio)-1-oxobutane-2-yl)carbamate], 108 µM.

In the case of `Cc1cc(C#N)cc(C)c1Oc1nc(Nc2ccc(C#N)cc2)nc2c1CN(C(=O)C(N)Cc1cn[nH]c1)CC2` (stereo not drawn) [BB0274121, 4-((6-(2-Amino-3-(1H-pyrazole-4-yl)propanoyl)-2-((4-cyanophenyl)amino)-5,6,7,8-tetrahydropyrido[4,3-d]pyrimidine-4-yl)oxy)-3,5-dimethylbenzonitrile], the IC50 worked out at 18.7 µM. With `Cc1cc(C#N)cc(C)c1Oc1nc(Nc2ccc(C#N)cc2)nc2c1CN(C(=O)C(Cc1cnn(C(=O)OC(C)(C)C)c1)NC(=O)OC(C)(C)C)CC2` (stereo not drawn) [BB0274122, Tert-butyl 4-(2-((tert-butoxycarbonyl)amino)-3-(4-(4-cyano-2,6-dimethylphenoxy)-2-((4-cyanophenyl)amino)-7,8-dihydropyrido[4,3-d]pyrimidine-6(5H)-yl)-3-oxopropyl)-1H-pyrazole-1-carboxylate] the figure was 18.9 µM; with `Cc1cc(C#N)cc(C)c1Oc1nc(Nc2ccc(C#N)cc2)nc2c1CN(C(=O)[C@H](N)CO)CC2` [BB0274123, (R)-4-((6-(2-Amino-3-hydroxypropanoyl)-2-((4-cyanophenyl)amino)-5,6,7,8-tetrahydropyrido[4,3-d]pyrimidine-4-yl)oxy)-3,5-dimethylbenzonitrile], 2.07 µM; with `Cc1cc(C#N)cc(C)c1Oc1nc(Nc2ccc(C#N)cc2)nc2c1CN(C(=O)[C@H](Cc1ccc(O)cc1)NC(=O)OC(C)(C)C)CC2` [BB0274124, (S)-Tert-butyl (1-(4-(4-cyano-2,6-dimethylphenoxy)-2-((4-cyanophenyl)amino)-7,8-dihydropyrido[4,3-d]pyrimidine-6(5H)-yl)-3-(4-hydroxyphenyl)-1-oxopropane-2-yl)carbamate], 342 µM.
